Our source for the Ki values is US8349872B2, “Tripyridyl carboxamide orexin receptor antagonists” (Merck Sharp & Dohme Corp., priority 2008, dated 2013).

The target in the experiment is T1, OX2 receptor (Homo sapiens, UniProt O43614).
T1 construct: expressed in transfected cells; host or cells: CHO cells (membranes)
T1 sequence (O43614 1-444): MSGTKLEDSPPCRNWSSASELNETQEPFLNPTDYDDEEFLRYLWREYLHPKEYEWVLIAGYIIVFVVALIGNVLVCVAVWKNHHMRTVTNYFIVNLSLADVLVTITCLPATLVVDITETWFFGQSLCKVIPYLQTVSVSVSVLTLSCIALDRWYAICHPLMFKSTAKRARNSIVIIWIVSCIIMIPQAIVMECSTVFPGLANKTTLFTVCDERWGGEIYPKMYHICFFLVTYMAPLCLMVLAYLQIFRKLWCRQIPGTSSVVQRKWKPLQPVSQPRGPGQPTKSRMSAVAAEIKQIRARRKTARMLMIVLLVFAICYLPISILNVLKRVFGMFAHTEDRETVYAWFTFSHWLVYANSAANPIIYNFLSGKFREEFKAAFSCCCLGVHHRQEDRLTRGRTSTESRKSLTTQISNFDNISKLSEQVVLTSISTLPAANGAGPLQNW
In words: radioligand binding assay, OX2 receptor. The conditions noted are these: membranes prepared from CHO cells expressing the OX2 receptor; read-out: OX2R Ki. As to the method:
The utility of the compounds in accordance with the present invention as orexin receptor OX1R and/or OX2R antagonists may be readily determined without undue experimentation by methodology well known in the art, including the “FLIPR Ca^2+ Flux Assay” (Okumura et al., Biochem. Biophys. Res. Comm. 280:976-981, 2001). In a typical experiment the OX1 and OX2 receptor antagonistic activity of the compounds of the present invention was determined in accordance with the following experimental method. For intracellular calcium measurements, Chinese hamster ovary (CHO) cells expressing the rat orexin-1 receptor or the human orexin-2 receptor, are grown in Iscove's modified DMEM containing 2 mM L-glutamine, […], 1% hypoxanthine-thymidine supplement, 100 U/ml penicillin, 100 ug/ml streptomycin and 10% heat-inactivated fetal calf serum (FCS). The cells are seeded at 20,000 cells/well into Becton-Dickinson black 384-well clear bottom sterile plates coated with poly-D-lysine. All reagents were from GIBCO-Invitrogen Corp. The seeded plates are incubated overnight at 37° C. and 5% CO2. Ala-6,12 human orexin-A as the agonist is prepared as a 1 mM stock solution in 1% bovine serum albumin (BSA) and diluted in assay buffer (HBSS containing 20 mM HEPES, 0.1% BSA and 2.5 mM probenecid, pH 7.4) for use in the assay at a final concentration of 70 pM. Test compounds are prepared as 10 mM stock solution in DMSO, then diluted in 384-well plates, first in DMSO, then assay buffer. On the day of the assay, cells are washed 3 times with 100 ul assay buffer and then incubated for 60 min (37° C., 5% CO2) in 60 ul assay buffer containing 1 uM Fluo-4AM ester, 0.02% pluronic acid, and 1% BSA. The dye loading solution is then aspirated and cells are washed 3 times with 100 ul assay buffer. 30 ul of that same buffer is left in each well. Within the Fluorescent Imaging Plate Reader (FLIPR, Molecular Devices), test compounds are added to the plate in a volume of 25 ul, incubated for 5 min and finally 25 ul of agonist is added. Fluorescence is measured for each well at 1 second intervals for 5 minutes and the height of each fluorescence peak is compared to the height of the fluorescence peak induced by 70 pM Ala-6,12 orexin-A with buffer in place of antagonist. For each antagonist, IC50 value (the concentration of compound needed to inhibit 50% of the agonist response) is determined. Alternatively, compound potency can be assessed by a radioligand binding assay (described in Bergman et. al. Bioorg. Med. Chem. Lett. 2008, 18, 1425-1430) in which the inhibition constant (Ki) is determined in membranes prepared from CHO cells expressing either the OX1 or OX2 receptor. The intrinsic orexin receptor antagonist activity of a compound which may be used in the present invention may be determined by these assays.
On to `COc1ccc(CNC(=O)c2cc(-c3cc(C)cnc3F)cnc2-c2ccccn2)cc1Cl` [11-5, N-(3-chloro-4-methoxybenzyl)-2″-fluoro-5″- methyl-2,2′: 5′,3 ″-terpyridine-3′-carboxamide], for which the Ki – broadly, a measure of affinity in units of concentration, obtained from inhibition or displacement – was 1.3 nM.
In the case of `COc1ccc(CNC(=O)c2cc(-c3cncc(Cl)c3)cnc2-c2ccccn2)nc1OC` [12-5, 5″-chloro-N-[(5,6-dimethoxypyridin-2-yl)methyl]-2,2′:5′,3″-terpyridine-3′-carboxamide] it was 0.54 nM.
Next, `COc1ccc(CNC(=O)c2cc(-c3cncc(C)c3)cnc2-c2ccccn2)nc1OC` [12-6, N-[(5,6-dimethoxypyridin-2-yl)methyl]-5″-methyl-2,2′:5′,3″-terpyridine-3′-carboxamide]: 0.46 nM; `COc1ccc(CNC(=O)c2cc(-c3cncc(C#N)c3)cnc2-c2ccccn2)nc1OC` [12-14, 5″-cyano-N-[(5,6-dimethoxypyridin-2-yl)methyl]-2,2′:5′,3″- terpyridine-3′-carboxamide]: 12 nM.
In the case of “N-(4-ethyl-3- methoxybenzyl)-5″- methyl-2,2′:5′,3″- terpyridine-3′- carboxamide [12-17]” it was 1.2 nM.
